Like-named read-outs stand apart in the source and are kept apart here.
Assays:
[1] = cited from earlier work
[2] = FIG. 17
Method: Table printed on a drawing sheet, FIG. 17
The patent's description of the figure: FIG. 17 illustrates systematic scanning of the effects of thioamide modification position in a peptide. The thioamide modifications were conducted at different positions of the peptide chain. The resulting peptides were mixed with either papain or trypsin enzymes to measure the changes of fluorescence intensity. The “+” sign after the peptide sequence means the presence of the corresponding enzyme. The “−” sign after the peptide sequence means the lack of the corresponding enzyme.
First reader's note: Raised S after a residue marks the thioamide position; the half-lives are proteolytic half-lives in the presence of papain or trypsin.

[3] = native peptide, DPP-4 substrate

| Papain t1/2 [2] | Trypsin t1/2 [2] | Substance | half-life (in vivo / circulating) [1, 3] | half-life (in vivo / circulating) ([1]; in vivo) |
| --- | --- | --- | --- | --- |
| 5 min | 2 min | μLLKAAA^Sμ [compound 58] |  |  |
| 5 min | 1 min | μLLKAAAμ [compound 52] |  |  |
| >30 min | 3 min | μLLKA^SAAμ [compound 56] |  |  |
| 12 min | >200 min | μLLR^SAAAμ [compound 55] |  |  |
| 180 min | 2 min | μLL^SKAAAμ [compound 54] |  |  |
| 4 min | 4 min | μL^SLKAAAμ [compound 53] |  |  |

Further lines, the substance ahead of its results:

| Substance | Papain t1/2 [2] | Trypsin t1/2 [2] | half-life (in vivo / circulating) [1, 3] | half-life (in vivo / circulating) ([1]; in vivo) |
| --- | --- | --- | --- | --- |
| ENT: enterostatin, SEQ ID NO:47 (APGPR; listed as Homo sapiens) |  |  | 5 min |  |
| GHRH: growth-hormone-releasing hormone, SEQ ID NO:43 |  |  | 19 min |  |
| GIP: glucose-dependent insulinotropic factor, SEQ ID NO:5 |  |  |  | less than 15 minutes |
| NPY: neuropeptide Y, SEQ ID NO:23, 36-amino acid peptide |  |  | 15 to 20 min |  |
| μLLKAA^SAμ [compound 57] | 4 min | 2 min |  |  |

Source: patent US11891425B2, “Thioamide-modified peptides and uses thereof” (THE TRUSTEES OF THE UNIVERSITY OF PENNSYLVANIA, priority 2014, dated 2024)
